Test results taken from patent US20160270410A1, “INSECTICIDAL COMPOSITIONS AND METHODS OF USING THE SAME” (Clarke Mosquito Control Products, Inc., priority 2011, published 2016).

Tested on: 3rd instar Aedes aegypti
Test: Laboratory bioassay in larval trays, larvicide surface film, Aedes aegypti
Type: in vivo
Conditions: components of Sample 42 tested neat, rate 663 μL, 21° C.
Description: Laboratory Bioassay Method. All larvae were reared on a diet of ground TETRAMIN® fish food (Tetra, Blacksburg, Va.) in an insectary maintained at 30° C. and 45% relative humidity (RH). Mainly third instars of Aedes aegypti were used for the laboratory container experiments. Anopheles quadrimaculatus and Culex quinquefasciatus were also tested where indicated.
Laboratory bioassays were conducted in […] plastic larval trays (laboratory containers). Each tray was filled with 27 liters of de-chlorinated water and received 50 healthy third instar larvae. The temperature of the water during most of the studies was 21° C. Additional testing was done at a water temperature of 15.6° C. and 28° C. Treatments were applied at a rate of 3 gal/acre or 663 μL/tray with an Eppendorf pipette. During the experimental period larvae were fed ground TETRAMIN® fish food (Tetra, Blacksburg, Va.) that was blended with water before introduction into the water of the larval tray to prevent flotation and thus interference with the surface film being tested.
Trays were scored for mortality at 1, 2, 4, 24, 48, and 72 hours following treatment introduction. At each time period the numbers of live and dead larvae were counted. […] Each treatment in the study was replicated three times using separate trays for each replication. A 95% mortality rate was considered acceptable for a commercial product.

ethoxylated tridecyl alcohol
% MORTALITY 24 HAT (24 HAT): 17% | % MORTALITY 48 HAT (48 HAT): 20% | % MORTALITY 72 HAT (72 HAT): 25%
